Experimental data published in article PMC9916866 (International Journal of Molecular Sciences, 2023).

Columns and labels:
AT2 receptor = system: T1, AT2 receptor; type: binding, rat
T1 construct: expressed in transfected cells

AT1 receptor [1] = molecular target: T2, AT1 receptor (Homo sapiens, UniProt P30556); type: cell-based; set-up: expressed in transfected cells; host or cells: HEK293T
T2 sequence (P30556 1-359): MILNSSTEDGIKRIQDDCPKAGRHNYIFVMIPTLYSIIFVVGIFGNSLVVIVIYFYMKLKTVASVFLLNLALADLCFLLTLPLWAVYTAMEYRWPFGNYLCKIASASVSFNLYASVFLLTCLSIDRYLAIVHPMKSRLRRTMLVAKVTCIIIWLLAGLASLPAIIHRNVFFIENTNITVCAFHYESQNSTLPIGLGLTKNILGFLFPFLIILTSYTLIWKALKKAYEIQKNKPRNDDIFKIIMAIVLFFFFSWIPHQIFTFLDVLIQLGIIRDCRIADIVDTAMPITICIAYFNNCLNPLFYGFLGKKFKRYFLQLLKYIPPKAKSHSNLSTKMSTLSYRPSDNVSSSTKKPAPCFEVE

AT1 receptor [2] = molecular target: T2, AT1 receptor
AT1 receptor [3] = molecular target: T2, AT1 receptor; assay: cell-based; type: cell-based; set-up: expressed in transfected cells; host or cells: HEK293T

SMILES	non-specific labelling of cells compared to total labelling with Cy5-AngII alone, AT2 (AT2 receptor)	activation of GαoA pathway by the substance alone (AT1 receptor [1])	inhibition of AngII-induced GαoA activation, 1 µM candesartan (AT1 receptor [1])	increase in BRET signal (β-arrestin 2 recruitment) by the substance alone (AT1 receptor [2])	inhibition of AngII-induced β-arrestin 2 BRET signal, 1 µM candesartan (AT1 receptor [2])	activation of Gαi3 by the substance alone (AT1 receptor [3])	inhibition of AngII-induced Gαi3 activation, 1 µM candesartan (AT1 receptor [3])
CC[C@H](C)[C@H](NC(=O)[C@H](Cc1ccc(O)cc1)NC(=O)[C@@H](NC(=O)[C@H](CCCNC(=N)N)NC(=O)[C@@H](N)CC(=O)O)C(C)C)C(=O)N[C@@H](Cc1c[nH]cn1)C(=O)N1CCC[C@H]1C(=O)N[C@@H](Cc1ccccc1)C(=O)O [AngII, angiotensin II]	7%						
CCOc1nc2cccc(C(=O)O)c2n1Cc1ccc(-c2ccccc2-c2nnn[nH]2)cc1 [candesartan]		Neither the toxin nor the candesartan alone can induce activation of this pathway	blocked	Neither the candesartan nor the toxin alone could induce an increase in the BRET signal	completely inhibits	Neither candesartan, an AT1 receptor antagonist, nor the toxin alone could induce the activation of Gαi3	fully inhibited
